Key:
[1] = molecular target: T1, Factor B enzyme (recombinant human complement factor B protein, as CVF:Bb complex) (Homo sapiens, UniProt P00751); conditions: biological evaluation in Application No. WO2022143845; cited from earlier work
T1 construct: host or cells: HD CHO-S cells, pcDNA3.4 vector

[2] = Influencing factor stability (open flasks, light, high temperature, high humidity, 30 days); conditions: for chemical stability under high humidity conditions: high humidity conditions only
[3] = Long-term/accelerated stability (sealed, 25° C./60% RH and 40° C./75% RH); conditions: for chemical stability / physical stability: 25° C./60% RH and 40° C./75% RH
[4] = DVS (dynamic vapor sorption) hygroscopicity testing; assay type: physicochemical; conditions: for hygroscopic weight gain under normal storage conditions / hygroscopic weight gain under accelerated experimental conditions / hygroscopic weight gain under extreme conditions: DVS; for hygroscopic weight gain under normal storage conditions: 25° C. and 60% RH; for hygroscopic weight gain under accelerated experimental conditions: 70% RH; for hygroscopic weight gain under extreme conditions: 90% RH; for crystal form re-identification after DVS testing: XRPD after DVS
Procedure: DVS refers to dynamic vapor sorption: Surface Measurement Systems instrinsic was adopted; the humidity started at 50%, the humidity range investigated was 0%-95%, and the humidity was increased in increments of 10%; the criterion was that each gradient mass change dM/dT is less than 0.002%, TMAX 360 min, two cycles.

[5] = Light exposure (4500 Lux), 5 days, open flask
[6] = Light exposure (4500 Lux), 10 days, open flask
[7] = Light exposure (4500 Lux), 30 days, open flask
[8] = light exposure (4500 Lux), 40° C. and 60° C., high humidity RH 75% and 92.5%, 30 days
[9] = 25° C., 60% RH, sealed, 1 month
[10] = 25° C., 60% RH, sealed, 2 months
[11] = 25° C., 60% RH, sealed, 3 months
[12] = 25° C., 60% RH, sealed, 6 months
[13] = 40° C., 75% RH, sealed, 1 month
[14] = 40° C., 75% RH, sealed, 2 months
[15] = 40° C., 75% RH, sealed, 3 months
[16] = 40° C., 75% RH, sealed, 6 months

T1 sequence (P00751 260-764 limits assumed): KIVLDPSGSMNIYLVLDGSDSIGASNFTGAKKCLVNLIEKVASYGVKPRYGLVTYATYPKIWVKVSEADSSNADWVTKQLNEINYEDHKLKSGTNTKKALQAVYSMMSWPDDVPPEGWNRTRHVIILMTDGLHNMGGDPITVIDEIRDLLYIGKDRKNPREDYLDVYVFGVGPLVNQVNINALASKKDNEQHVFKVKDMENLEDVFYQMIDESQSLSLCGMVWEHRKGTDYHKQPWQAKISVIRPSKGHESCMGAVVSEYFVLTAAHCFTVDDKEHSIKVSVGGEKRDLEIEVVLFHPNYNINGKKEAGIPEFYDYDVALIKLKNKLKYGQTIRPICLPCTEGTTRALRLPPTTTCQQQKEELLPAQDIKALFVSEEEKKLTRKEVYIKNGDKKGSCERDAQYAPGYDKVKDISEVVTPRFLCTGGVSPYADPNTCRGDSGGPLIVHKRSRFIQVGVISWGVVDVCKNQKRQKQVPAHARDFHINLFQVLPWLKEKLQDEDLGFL
T1 sequence (Q91132 23-649 partner limits assumed): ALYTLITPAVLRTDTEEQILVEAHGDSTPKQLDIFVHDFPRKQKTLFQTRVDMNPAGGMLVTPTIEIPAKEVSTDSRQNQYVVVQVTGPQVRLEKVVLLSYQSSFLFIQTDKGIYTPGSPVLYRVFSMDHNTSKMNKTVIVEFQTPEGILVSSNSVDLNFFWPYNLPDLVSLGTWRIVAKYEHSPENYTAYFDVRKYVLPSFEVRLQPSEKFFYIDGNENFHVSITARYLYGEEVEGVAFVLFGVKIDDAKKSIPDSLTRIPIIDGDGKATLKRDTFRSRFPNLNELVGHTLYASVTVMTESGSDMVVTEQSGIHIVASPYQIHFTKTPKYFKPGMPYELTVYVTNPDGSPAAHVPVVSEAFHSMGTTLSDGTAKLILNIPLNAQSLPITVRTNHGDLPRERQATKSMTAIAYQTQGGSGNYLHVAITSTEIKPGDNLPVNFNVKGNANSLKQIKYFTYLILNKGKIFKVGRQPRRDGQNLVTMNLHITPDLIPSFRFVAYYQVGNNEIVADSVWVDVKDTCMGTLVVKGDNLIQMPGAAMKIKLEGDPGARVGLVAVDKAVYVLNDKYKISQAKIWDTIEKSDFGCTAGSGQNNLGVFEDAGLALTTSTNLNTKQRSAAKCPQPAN
T1 sequence (Q91132 733-984 partner limits assumed): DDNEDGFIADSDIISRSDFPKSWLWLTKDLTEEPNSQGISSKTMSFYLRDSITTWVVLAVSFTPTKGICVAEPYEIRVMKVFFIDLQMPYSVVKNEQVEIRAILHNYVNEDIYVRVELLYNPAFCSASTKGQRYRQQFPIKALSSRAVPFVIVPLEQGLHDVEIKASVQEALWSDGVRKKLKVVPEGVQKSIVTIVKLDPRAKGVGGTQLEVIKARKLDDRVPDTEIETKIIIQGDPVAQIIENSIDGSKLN
T1 sequence (Q91132 1264-1642 partner limits assumed): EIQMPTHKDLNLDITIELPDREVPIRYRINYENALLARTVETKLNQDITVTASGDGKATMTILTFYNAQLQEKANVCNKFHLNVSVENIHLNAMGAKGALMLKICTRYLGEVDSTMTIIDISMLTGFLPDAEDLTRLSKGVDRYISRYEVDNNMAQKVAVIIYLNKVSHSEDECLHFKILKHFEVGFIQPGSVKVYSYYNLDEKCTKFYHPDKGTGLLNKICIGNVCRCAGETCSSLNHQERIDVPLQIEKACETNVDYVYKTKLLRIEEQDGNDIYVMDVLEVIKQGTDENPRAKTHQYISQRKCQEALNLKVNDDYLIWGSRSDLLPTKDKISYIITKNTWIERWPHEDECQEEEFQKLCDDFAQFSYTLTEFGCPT

CCO[C@H]1C[C@H]2CC[C@@](c3ccc(C(=O)O)cc3)(C1)N2Cc1c(OC)cc(C)c2[nH]ccc12 [compound I, 4-((1S,3S,5R)-3-ethoxy-8-((5-methoxy-7-methyl-1H-indol-4-yl)methyl)-8-azabicyclo[3.2.1]octan-1-yl)benzoic acid]
relatively good inhibitory effect: inhibitory effect on the enzyme activity of Factor B [1]

CCO[C@H]1C[C@H]2CC[C@@](c3ccc(C(=O)O)cc3)(C1)N2Cc1c(OC)cc(C)c2[nH]ccc12.Cc1ccc(S(=O)(=O)O)cc1 [crystal form I of the p-toluenesulfonate, 4-((1S,3S,5R)-3-ethoxy-8-((5-methoxy-7-methyl-1H-indol-4-yl)methyl)-8-azabicyclo[3.2.1]octan-1-yl)benzoic acid-p-toluenesulfonate]
about 1.22%: hygroscopic weight gain under normal storage conditions [4]
100.0%: Purity % ([2]; 92.5% RH, 5 days, open flask) | Purity % ([2]; 92.5% RH, 10 days, open flask) | Purity % ([2]; Initial, 0 days) | Purity % [3, 9] | Purity % [3, 10] | Purity % [3, 11] | Purity % [3, 12] | Purity % [3, 13] | Purity % ([3]; Initial)
good: chemical stability [2, 8] | physical stability [2, 8]
about 1.87%: hygroscopic weight gain under extreme conditions [4]
99.5%: Purity % ([2]; 40° C., 30 days, open flask)
99.9%: Purity % ([2]; 75% RH, 5 days, open flask) | Purity % ([2]; 75% RH, 10 days, open flask) | Purity % ([2]; 75% RH, 30 days, open flask) | Purity % ([2]; 92.5% RH, 30 days, open flask) | Purity % [2, 5] | Purity % [2, 6]
about 1.37%: hygroscopic weight gain under accelerated experimental conditions [4]
99.7%: Purity % ([2]; 40° C., 10 days, open flask) | Purity % ([2]; 60° C., 30 days, open flask) | Purity % [2, 7] | Purity % [3, 16]
99.8%: Purity % ([2]; 40° C., 5 days, open flask) | Purity % ([2]; 60° C., 5 days, open flask) | Purity % ([2]; 60° C., 10 days, open flask) | Purity % [3, 14] | Purity % [3, 15]
did not change: crystal form re-identification after DVS testing [4]
relatively good: chemical stability ([3]; 6 months) | physical stability ([3]; 6 months)
White solid: Color and state ([2]; 40° C., 5 days, open flask) | Color and state ([2]; 40° C., 10 days, open flask) | Color and state ([2]; 40° C., 30 days, open flask) | Color and state ([2]; 60° C., 5 days, open flask) | Color and state ([2]; 60° C., 10 days, open flask) | Color and state ([2]; 60° C., 30 days, open flask) | Color and state ([2]; 75% RH, 5 days, open flask) | Color and state ([2]; 75% RH, 10 days, open flask) | Color and state ([2]; 75% RH, 30 days, open flask) | Color and state ([2]; 92.5% RH, 5 days, open flask) | Color and state ([2]; 92.5% RH, 10 days, open flask) | Color and state ([2]; 92.5% RH, 30 days, open flask) | Color and state ([2]; Initial, 0 days) | Color and state [2, 5] | Color and state [2, 6] | Color and state [2, 7]
No change: Salt form ([2]; 40° C., 5 days, open flask) | Salt form ([2]; 40° C., 10 days, open flask) | Salt form ([2]; 40° C., 30 days, open flask) | Salt form ([2]; 60° C., 5 days, open flask) | Salt form ([2]; 60° C., 10 days, open flask) | Salt form ([2]; 60° C., 30 days, open flask) | Salt form ([2]; 75% RH, 5 days, open flask) | Salt form ([2]; 75% RH, 10 days, open flask) | Salt form ([2]; 75% RH, 30 days, open flask) | Salt form ([2]; 92.5% RH, 5 days, open flask) | Salt form ([2]; 92.5% RH, 10 days, open flask) | Salt form ([2]; 92.5% RH, 30 days, open flask) | Salt form [2, 5] | Salt form [2, 6] | Salt form [2, 7] | Salt form [3, 9] | Salt form [3, 10] | Salt form [3, 11] | Salt form [3, 12] | Salt form [3, 13] | Salt form [3, 14] | Salt form [3, 15] | Salt form [3, 16]

CCO[C@H]1C[C@H]2CC[C@@](c3ccc(C(=O)O)cc3)(C1)N2Cc1c(OC)cc(C)c2[nH]ccc12.Cl [crystal form II of the hydrochloride, 4-((1S,3S,5R)-3-ethoxy-8-((5-methoxy-7-methyl-1H-indol-4-yl)methyl)-8-azabicyclo[3.2.1]octan-1-yl)benzoic acid-hydrochloride]
98.8%: Purity % ([2]; 60° C., 10 days, open flask)
99.9%: Purity % [3, 15] | Purity % [3, 16]
White solid: Color and state ([2]; 40° C., 5 days, open flask) | Color and state ([2]; 40° C., 10 days, open flask) | Color and state ([2]; 40° C., 30 days, open flask) | Color and state ([2]; 60° C., 5 days, open flask) | Color and state ([2]; 60° C., 10 days, open flask) | Color and state ([2]; 60° C., 30 days, open flask) | Color and state ([2]; 75% RH, 5 days, open flask) | Color and state ([2]; 75% RH, 10 days, open flask) | Color and state ([2]; 75% RH, 30 days, open flask) | Color and state ([2]; 92.5% RH, 5 days, open flask) | Color and state ([2]; 92.5% RH, 10 days, open flask) | Color and state ([2]; 92.5% RH, 30 days, open flask) | Color and state ([2]; Initial, 0 days) | Color and state [2, 5] | Color and state [2, 6] | Color and state [2, 7]
Crystal form: Salt form ([2]; Initial, 0 days)
99.8%: Purity % [2, 5]
99.2%: Purity % [2, 6]
100.0%: Purity % ([2]; 75% RH, 5 days, open flask) | Purity % ([2]; 75% RH, 10 days, open flask) | Purity % ([2]; 75% RH, 30 days, open flask) | Purity % ([2]; 92.5% RH, 5 days, open flask) | Purity % ([2]; 92.5% RH, 10 days, open flask) | Purity % ([2]; 92.5% RH, 30 days, open flask) | Purity % ([2]; Initial, 0 days) | Purity % [3, 9] | Purity % [3, 10] | Purity % [3, 11] | Purity % [3, 12] | Purity % [3, 13] | Purity % [3, 14] | Purity % ([3]; Initial)
about 4.28%: hygroscopic weight gain under accelerated experimental conditions [4]
No change: Salt form ([2]; 40° C., 5 days, open flask) | Salt form ([2]; 40° C., 10 days, open flask) | Salt form ([2]; 40° C., 30 days, open flask) | Salt form ([2]; 60° C., 5 days, open flask) | Salt form ([2]; 60° C., 10 days, open flask) | Salt form ([2]; 60° C., 30 days, open flask) | Salt form ([2]; 75% RH, 5 days, open flask) | Salt form ([2]; 75% RH, 10 days, open flask) | Salt form ([2]; 75% RH, 30 days, open flask) | Salt form ([2]; 92.5% RH, 5 days, open flask) | Salt form ([2]; 92.5% RH, 10 days, open flask) | Salt form ([2]; 92.5% RH, 30 days, open flask) | Salt form [2, 5] | Salt form [2, 6] | Salt form [2, 7] | Salt form [3, 11] | Salt form [3, 12]
99.3%: Purity % ([2]; 40° C., 10 days, open flask)
about 3.93%: hygroscopic weight gain under normal storage conditions [4]
did not change: crystal form re-identification after DVS testing [4]
96.5%: Purity % [2, 7]
about 5.00%: hygroscopic weight gain under extreme conditions [4]
98.6%: Purity % ([2]; 40° C., 30 days, open flask)
99.4%: Purity % ([2]; 40° C., 5 days, open flask) | Purity % ([2]; 60° C., 5 days, open flask)
97.4%: Purity % ([2]; 60° C., 30 days, open flask)
good: chemical stability under high humidity conditions ([2]; 30 days) | physical stability [2, 8] | chemical stability ([3]; 6 months) | physical stability ([3]; 6 months)

CCO[C@H]1C[C@H]2CC[C@@](c3ccc(C(=O)O)cc3)(C1)N2Cc1c(OC)cc(C)c2[nH]ccc12.Cl [crystal form III of the hydrochloride, 4-((1S,3S,5R)-3-ethoxy-8-((5-methoxy-7-methyl-1H-indol-4-yl)methyl)-8-azabicyclo[3.2.1]octan-1-yl)benzoic acid-hydrochloride]
about 4.5700%: hygroscopic weight gain under extreme conditions [4]
99.0%: Purity % ([2]; 40° C., 30 days, open flask)
White solid: Color and state ([2]; 40° C., 5 days, open flask) | Color and state ([2]; 40° C., 10 days, open flask) | Color and state ([2]; 40° C., 30 days, open flask) | Color and state ([2]; 60° C., 5 days, open flask) | Color and state ([2]; 60° C., 10 days, open flask) | Color and state ([2]; 60° C., 30 days, open flask) | Color and state ([2]; 75% RH, 5 days, open flask) | Color and state ([2]; 75% RH, 10 days, open flask) | Color and state ([2]; 75% RH, 30 days, open flask) | Color and state ([2]; 92.5% RH, 5 days, open flask) | Color and state ([2]; 92.5% RH, 10 days, open flask) | Color and state ([2]; 92.5% RH, 30 days, open flask) | Color and state ([2]; Initial, 0 days) | Color and state [2, 5] | Color and state [2, 6] | Color and state [2, 7]
98.5%: Purity % ([2]; 60° C., 30 days, open flask)
99.3%: Purity % ([2]; 60° C., 5 days, open flask)
about 2.57%: hygroscopic weight gain under normal storage conditions [4]
99.2%: Purity % [2, 5]
No change: Salt form ([2]; 40° C., 5 days, open flask) | Salt form ([2]; 40° C., 10 days, open flask) | Salt form ([2]; 40° C., 30 days, open flask) | Salt form ([2]; 60° C., 5 days, open flask) | Salt form ([2]; 60° C., 10 days, open flask) | Salt form ([2]; 60° C., 30 days, open flask) | Salt form ([2]; 75% RH, 5 days, open flask) | Salt form ([2]; 75% RH, 10 days, open flask) | Salt form ([2]; 75% RH, 30 days, open flask) | Salt form ([2]; 92.5% RH, 5 days, open flask) | Salt form ([2]; 92.5% RH, 10 days, open flask) | Salt form ([2]; 92.5% RH, 30 days, open flask) | Salt form [2, 5] | Salt form [2, 6] | Salt form [2, 7]
99.1%: Purity % ([2]; 60° C., 10 days, open flask)
99.4%: Purity % ([2]; 40° C., 10 days, open flask) | Purity % [3, 16]
about 2.960%: hygroscopic weight gain under accelerated experimental conditions [4]
good: chemical stability under high humidity conditions ([2]; 30 days) | physical stability [2, 8] | chemical stability ([3]; 6 months) | physical stability ([3]; 6 months)
99.5%: Purity % [3, 14] | Purity % [3, 15]
Crystal form: Salt form ([2]; Initial, 0 days)
did not change: crystal form re-identification after DVS testing [4]
96.2%: Purity % [2, 7]
98.4%: Purity % [2, 6]
99.6%: Purity % ([2]; 40° C., 5 days, open flask) | Purity % ([2]; 75% RH, 5 days, open flask) | Purity % ([2]; 75% RH, 10 days, open flask) | Purity % [3, 9] | Purity % [3, 10] | Purity % [3, 11] | Purity % [3, 12] | Purity % [3, 13] | Purity % ([3]; Initial)
